Laboratory results published in US11566049B2, “Cyclic peptides and uses thereof” (LATERAL IP PTY LTD, priority 2018, dated 2023).
Several values for one entry are separate records, joined by “and”; a condition that tells them apart may be missing. Equal entries are not always repeated. Entries after “also recorded” stand apart in the source; their conditions may differ. Positions of bridges follow the written chain, without caps; N, C: chain ends. No end group written: not given here.

How the values were obtained:
dorsal horn neurons [1] = assay: whole-cell recording of dorsal horn neurons in spinal cord slices from Chung models (Example 3); assay type: cell-based, rat; settings: 5 μM
Procedure: Spinal nerve ligation (Chung model; as described in Examples 1 and 2, above) was performed by a single tight ligation on the L5 spinal nerve. […] This animal model is often used as the “gold standard” for neuropathic pain.
(§1) Adult male Sprague-Dawley rats, weighing 220-250 g (aged 7 weeks and older) at the time of surgery, were used in this study. They were housed in groups of 4, in an air-conditioned room, on a 12-hour light/dark cycle with food and water available ad libitum. All experiments were performed in accordance with the U. K. Animals (Scientific Procedures) Act (1986).
(§2) The animals were housed in groups of 4 in an air-conditioned room on a 12-hour light/dark cycle. Food and water were available ad libitum. Animals were allowed to acclimatise to the environment for experiments for three days by leaving them on a raised metal mesh for at least 40 min. The baseline paw withdrawal threshold (PWT) was examined using a series of graduated von Frey hairs (see below) for 3 consecutive days before surgery and re-assessed on the 6th to 8th day after surgery and on the 12th to 14th day-after surgery before drag dosing.
(§3) Each rat was anaesthetized with 5% isoflurane mixed with oxygen (2 L per min) followed by an intramuscular (i.m.) injection of ketamine 90 mg/kg plus xylazine 10 mg/kg. The back was shaved and sterilized with povidone-iodine. The animal was placed in a prone position and a para-medial incision was made on the skin covering the L4-6 level. The L5 spinal nerve was carefully isolated and tightly ligated with 6/0 silk suture. The wound was then closed in layers after a complete haemostasis. A single dose of antibiotics (Amoxipen, 15 mg/rat, i.p.) was routinely given for prevention of infection after surgery. The animals were placed in a temperature-controlled recovery chamber until fully awake before being returned to their home cages.
The peptides of SEQ ID NO:27 (also referred to herein as LAT9993 Loop) and SEQ ID NO:28 (also referred to herein as LAT9993S or LAT9993 LoopS), were solubilised in distilled water and made up as concentrated stocks and stored frozen until the day of experiment when they were diluted to the required test concentrations in artificial cerebrospinal fluid (aCSF). The aCSF comprised (mM): NaCl, 127; KCl, 1.9; KH2PO4, 1.2; CaCl2, 2.4; MgCl2, 1.3; NaHCO3, 26; D-glucose, 10; equilibrated with 95% O2-5% CO2.
(§4) Ten to fourteen days after surgery, animals were placed in individual Perspex boxes on a raised metal mesh for at least 40 minutes prior to PWT testing. Starting with the filament of lowest force (1 g), each filament was applied perpendicularly to the centre of the ventral surface of the paw until slightly bent for 6 seconds. If the animal withdrew or lifted its paw upon stimulation, a von Frey hair with force immediately lower than that tested was subsequently used. If no response was observed, then a hair with force immediately higher was tested. The lowest amount of force required to induce reliable responses (positive in 2 out of 3 trials) was recorded as the value of PWT. Only animals showing significant mechanical allodynia (PWT≤3.5 g) were selected for subsequent electrophysiological experiments (see FIG. 5).
(§5) Once validation of a neuropathic state had been confirmed, animals were terminally anesthetized using isoflurane (Norvartis Animal Health UK Ltd.), cervically dislocated and decapitated. A laminectomy was performed and the spinal cord, with spinal roots and DRG attached, removed and cut into 250-450 μm thick slices using a Leica VT1000S vibrating microtome (Leica Microsystems UK, Milton Keynes, United Kingdom). Slices were maintained in artificial cerebrospinal fluid (aCSF) at room temperature for 1 hr after slicing before recording. For recording, individual slices were held between two grids in a custom-built chamber continuously perfused with aCSF at a rate of 4-10 ml.min^−1, illuminated from below, and viewed under a dissection microscope. […]

dorsal horn neurons [2] = assay: whole-cell recording of dorsal horn neurons in spinal cord slices from Chung models (Example 4); assay type: cell-based, rat; settings: 1 μM; for Input Resistance, mean in presence of peptide / Membrane Potential, mean in presence of peptide: all cells; for Normalised Input Resistance / Normalised Input Resistance ΔIR: control = 100; for effect on membrane potential and activity of dorsal horn neurons: ipsilateral to injury; for Normalised Membrane Potential / Normalised Membrane Potential ΔVm: rest = 100; for reversal potential of induced response (VI plots intersect): single cells; for ΔIR, change in neuronal input resistance: vs control, in table positive = reduction, negative = increase
Procedure: as §1, with “(aged/weeks” for “(aged 7 weeks”, “U.K.” for “U. K.”
as §2, with “They” for “Animals”, “day after” for “day-after”, “drug” for “drag”
as §3
LAT9993 LoopS (SEQ ID NO:28), SEQ11+LAT9993 Loop (SEQ ID NO:32; […]), SEQ25+LAT9993 Loop (SEQ ID NO:33; […]), LAT9993 SLoop A4 (SEQ ID NO:30), LAT9993 SLoop A7 (SEQ ID NO:31), LAT9993 SLoop A9 (SEQ ID NO:34; SCRSRPVEASC) and LAT9993 SLoop A10 (SEQ ID NO:35; SCRSRPVESAC), were solubilised in distilled water and made up as concentrated stocks and stored frozen until the day of experiment when they were diluted to the required test concentrations in artificial cerebrospinal fluid (aCSF), as described in Example 3, above.
as §4
as §5, with “microscope. The aCSF was of the following composition (mM): NaCl, 127; KCl, 1.9; KH2PO4, 1.2; CaCl2, 2.4; MgCl2, 1.3; NaHCO3, 26; D-glucose, 10; equilibrated with 95% O2-5% CO2.” for “microscope.”

Row | Sequence | dorsal root afferent-mediated EPSPs / synaptic inputs (words) (dorsal horn neurons [2]) | Input Resistance, mean in presence of peptide (dorsal horn neurons [2]) | Membrane Potential, mean in presence of peptide (dorsal horn neurons [2]) | Normalised Input Resistance (dorsal horn neurons [2]) | Normalised Input Resistance ΔIR (dorsal horn neurons [2]) | Normalised Membrane Potential (dorsal horn neurons [2]) | Normalised Membrane Potential ΔVm (dorsal horn neurons [2]) | reversal potential of induced response (VI plots intersect) (dorsal horn neurons [2]) | ΔIR, change in neuronal input resistance (dorsal horn neurons [2]) | also measured
1 | CRSRPVESSC (disulfide 1-10 (inferred); listed as Homo sapiens) [LAT9993 Loop, cyclic peptide of formula (I), disulphide bond between the two cysteine residues] |  |  |  |  |  |  |  |  |  | dorsal root afferent-mediated EPSPs (dorsal horn neurons [1]): suppression; also recorded: suppressed dorsal root afferent mediated excitatory synaptic transmission; evoked inhibitory post-synaptic potentials (dorsal horn neurons [1]): little effect; Input Resistance, mean in presence of peptide (dorsal horn neurons [1]; all cells): 566.3±82.0 MΩ and 566.3 MΩ; Membrane Potential, mean in presence of peptide (dorsal horn neurons [1]; all cells): −51.9±3.9 mV and −51.9 mV; Normalised Input Resistance (dorsal horn neurons [1]; control = 100): 92.4; Normalised Input Resistance ΔIR (dorsal horn neurons [1]; control = 100): 7.6; effect on membrane potential and activity of dorsal horn neurons (dorsal horn neurons [1]; ipsilateral to injury): marked membrane hyperpolarisation and inhibition of activity in 4 neurons; also recorded: little effect on a further 2 dorsal horn neurons; Normalised Membrane Potential (dorsal horn neurons [1]; rest = 100): 107.2; Normalised Membrane Potential ΔVm (dorsal horn neurons [1]; rest = 100): −7.2; ΔIR, change in neuronal input resistance (dorsal horn neurons [1]; vs control, positive in table = reduction): 51.6±75.3 MΩ and 51.6 MΩ; ΔVm, change in membrane potential (dorsal horn neurons [1]; vs rest, positive in table = hyperpolarisation): 3.5±1.1 mV and 3.5 mV
2 | SCRSRPAESSC (listed as Homo sapiens) [LAT9993 SLoop A7, peptide variant of formula (I)] | suppressed dorsal root-evoked excitatory posts-synaptic potentials (EPSPs) in some neurons | 292.9±81.3 MΩ and 292.9 MΩ | −46.2±4.3 mV and −46.2 mV | 93.3 | 6.7 | 95.3 | 4.7 | around −90 mV | 22.8±59.8 MΩ and 22.8 MΩ | effect on membrane potential and activity of dorsal horn neurons (dorsal horn neurons [2]): membrane hyperpolarisation and inhibition of activity in 1 neurone; also recorded: membrane depolarisation in 1 neurone; also recorded: no effect on membrane potential in the remaining neurone; effect on membrane potential and activity of dorsal horn neurons (dorsal horn neurons [2]; listed as LAT9993 Loop A7): membrane depolarisation; dorsal root afferent-mediated EPSPs / synaptic inputs (words) (dorsal horn neurons [2]; listed as LAT9993 Loop A7): suppressed dorsal root afferent-mediated excitatory synaptic inputs; also recorded: partly suppressed
3 | SCRSRPVEASC (listed as Homo sapiens) [LAT9993 SLoop A9, peptide variant of formula (I)] | little effect | 243.1±54.4 MΩ and 243.1 MΩ | −45.6±11.2 mV and −45.6 mV | 134.0 | −34.0 | 76.9 | 23.1 | no obvious reversal potentials |  | dorsal root-evoked IPSPs (dorsal horn neurons [2]): little effect; effect on membrane potential and activity of dorsal horn neurons (dorsal horn neurons [2]; listed as LAT9993 Loop A9): membrane depolarisation in all neurons; dorsal root afferent-mediated EPSPs / synaptic inputs (words) (dorsal horn neurons [2]; listed as LAT9993 Loop A9): no obvious effect; also recorded: little effect
4 | SCRSRPVESAC (listed as Homo sapiens) [LAT9993 SLoop A10, peptide variant of formula (I)] | little effect | 452.3 MΩ | −56.8±5.6 mV and −56.8 mV | 99.3 | 0.7 | 101.2 | −1.2 |  | −8.5 MΩ | Input Resistance, mean in presence of peptide (dorsal horn neurons [2]; listed as LAT9993 Loop A10): 452.3±197.1 MΩ; effect on membrane potential and activity of dorsal horn neurons (dorsal horn neurons [2]; listed as LAT9993 Loop A10): membrane hyperpolarisation and inhibition of activity in 2 neurons; also recorded: membrane depolarisation in 1 neurone; also recorded: little effect on dorsal horn neurons; ΔIR, change in neuronal input resistance (dorsal horn neurons [2]; listed as LAT9993 Loop A10): 8.5±26.5 MΩ; ΔVm, change in membrane potential (dorsal horn neurons [2]; vs rest, in table positive = hyperpolarisation, negative = depolarisation): 0.7±1.2 mV and 0.7 mV
